Here are results for 104 compounds from PubChem BioAssay AID1996.

Converted amounts (≈) assume the structure as drawn. Some results are limits rather than exact numbers.

The conditions of this data set: buffer; pH 7.4; 200.0 µM.
Consider `O=c1c2[nH]c3cccc(Cl)c3c2ncn1Cc1ccco1`, for which the kinetic solubility was 0.5 µg/mL (≈ 1.67 µM).
Next, `O=C(CN1CCCCCC1)Nc1ccccc1[N+](=O)[O-]`: 14 µg/mL (≈ 50.5 µM); `Cc1cc2oc(=O)cc(CN3CCCCC3C)c2cc1Cl` (centres undefined): 4.5 µg/mL (≈ 14.7 µM).
The figure for `CN1CC(=O)N(CC(=O)Nc2cccc3ccccc23)C1=O` is over 44.6 µg/mL; for `O=C(NCCS(=O)(=O)N1CCCCC1)c1ccccc1` it is over 44.5 µg/mL; for `CCc1ccc(NS(=O)(=O)c2ccc3[nH]c(=O)[nH]c3c2)cc1` it is 5.5 µg/mL (≈ 17.3 µM).
Next, `Cc1ccc(C(=O)N2CCCCC2)cc1S(=O)(=O)N1CCCC1`: over 50.5 µg/mL.
`CC(C#N)Sc1ccc(S(=O)(=O)N2CCCCC2)cn1` (centres undefined) registered a solubility (kinetic) of 9.4 µg/mL (≈ 30.2 µM).
Next, `O=C(OCC(=O)N1CCCCC1)c1cccs1`: over 38 µg/mL.
The figure for `O=C1CCc2ccccc2N1` is 15.9 µg/mL (≈ 108 µM).
Next, `COc1ccc(CC(=O)OCC(=O)c2ccc[nH]2)cc1`: over 41 µg/mL; `Cc1cc(C)cc(NC(=S)NC2CC3CCCC(C2)N3C2CC2)c1` (centres undefined): over 51.5 µg/mL.
In turn, `COC(=O)C1=C(N)OC2=C(C(=O)CC(C)(C)C2)C1c1ccccc1OC` (centres undefined) came in with a kinetic solubility of over 53.6 µg/mL.
As for `CCn1c(NC(=O)C(C)C)c2ccccc2nc1=O`, the solubility (kinetic) is over 38.9 µg/mL.
The figure for `O=C(COc1ccc(Br)cc1F)NCC1(N2CCCCC2)CCCCC1` is over 64.1 µg/mL; for `COc1ccc(CNc2ccc3c(c2)nc(C)n3C)cc1OC` it is 37.2 µg/mL (≈ 119 µM); for `CC1CCCC(NC(=O)COC(=O)/C=C/c2ccc([N+](=O)[O-])cc2)C1C` (centres undefined) it is 4.8 µg/mL (≈ 13.3 µM).
The figure for `N#Cc1ccc(COC(=O)c2ccc3c(c2)OCO3)cc1` is 2.3 µg/mL (≈ 8.18 µM); for `CC(=O)Nc1ccc(/C=C/c2nc3ccccc3o2)cc1` it is 8.7 µg/mL (≈ 31.3 µM); for `CN1C(=O)c2ccccc2N(C)C1c1cccc(O)c1` (centres undefined) it is 38.1 µg/mL (≈ 142 µM).
`COc1cc(OC)cc(C(=O)Nc2ccc(N(C)C)c3ccccc23)c1`: the kinetic solubility was under 0.4 µg/mL.
The figure for `Cc1ccc(NC(=O)C2CC(Cl)=CCC2C(=O)O)c([N+](=O)[O-])c1` (centres undefined) is over 50.8 µg/mL.
The figure for `CCC(CC)COC(=O)C1=C(C)NC(=O)NC1c1ccc(OC)cc1` (centres undefined) is 3 µg/mL (≈ 8.66 µM); for `O=C(COc1ccc2ccccc2c1)Nc1ccccc1C(=O)O` it is over 48.2 µg/mL.
Turning to `Cc1ccc(NC(=O)N2C3CCCC2CC(NC(=O)C2CC2)C3)cc1` (centres undefined), the kinetic solubility turned out to be 9.4 µg/mL (≈ 27.5 µM).
Next, `COc1ccc(CCC(=O)Nc2nccs2)cc1OC`: over 43.9 µg/mL; `COc1cccc2cc(C(=O)Nc3ccccc3C)/c(=N/O)oc12`: 4.6 µg/mL (≈ 14.2 µM).
`Cc1cccc(C(=O)O/N=C(\N)Cc2cccc3ccccc23)c1` had a kinetic solubility of 2.3 µg/mL (≈ 7.22 µM).
Next, `COc1ccc(/C=C/C(=O)N2CC(C)OC(C)C2)cc1OC` (centres undefined): 45.4 µg/mL (≈ 149 µM); `Cc1cccc(OCCC(=O)Nc2ccc(Cl)cc2F)c1`: under 0.7 µg/mL; `Nc1c(NCCc2ccccc2)c2ccccc2oc1=O`: over 42 µg/mL.
The figure for `O=C(Nc1cc(Cl)ccc1O)C1CC(c2ccccc2O)=NO1` (centres undefined) is 5.8 µg/mL (≈ 17.4 µM); for `Nc1nccc(-c2cccs2)n1` it is over 26.6 µg/mL; for `CC1Cc2ccccc2N1C(=O)Cn1cnc2ccccc21` (centres undefined) it is 42.3 µg/mL (≈ 145 µM).
Next, `COCCCn1c(=O)c2sccc2n(Cc2cccc(C)c2)c1=O`: 15.1 µg/mL (≈ 43.8 µM).
Take `COc1ccccc1NC(=O)COC(=O)CCC1CCCC1`: the solubility (kinetic) turned out to be 42.1 µg/mL (≈ 138 µM).
Next, `COc1ccc(C(=O)CN2C(=O)COc3ccccc32)cc1`: 43.1 µg/mL (≈ 145 µM); `CCOc1ccc(S(=O)(=O)N2CCOCC2)cc1[N+](=O)[O-]`: over 47.4 µg/mL.
As for `CCOc1ccccc1N(CC(=O)N1CCCC1)S(C)(=O)=O`, the kinetic solubility is over 49 µg/mL.
`O=C(Nc1ccc(Br)cn1)c1ccc(Cl)s1` had a kinetic solubility of 1.4 µg/mL (≈ 4.41 µM).
Next, `CC(C)CNC1CS(=O)(=O)CC1O.Cl` (centres undefined): over 36.6 µg/mL.
The figure for `Cc1c2c(n3c(nc4ccccc43)c1C#N)N(CCN(C)C)CC2` is over 47.9 µg/mL.
Next, `COc1cccc(NC(=O)N2CCCCCC2)c1`: over 37.2 µg/mL.
Regarding `O=C(COC(=O)CNC(=O)c1ccccc1F)Nc1ccc(Cl)cn1`, the kinetic solubility was found to be 22.2 µg/mL (≈ 60.7 µM).
The figure for `O=C(NCCCN1CCCC1)Nc1ccccc1[N+](=O)[O-]` is over 43.9 µg/mL.
Regarding `Cc1ccc(NC(=O)c2ccc(NC(=O)C3CCCCC3C(=O)O)cc2)cc1` (centres undefined), the solubility (kinetic) is over 57.1 µg/mL.
`CCNC(=O)c1cccc(NC(=O)C2CC(=O)N(CCc3ccccc3)C2)c1` (centres undefined) had a kinetic solubility of over 56.9 µg/mL.
The figure for `COC(=O)/C=C/c1c(C)nc(NCc2ccccc2)nc1Cl` is over 47.7 µg/mL.
The compound `Cc1cc(S(=O)(=O)Nc2noc3ccccc23)ccc1F` displayed a kinetic solubility of 41.2 µg/mL (≈ 135 µM).
Next, `O=C(COC(=O)C1CC1)NCc1ccccc1`: over 35 µg/mL.
`CC1Cc2ccccc2N1S(=O)(=O)c1cnc(Cl)c(Cl)c1` (centres undefined) registered a solubility (kinetic) of 0.6 µg/mL (≈ 1.75 µM).
Next, `CCCCN1C(=O)N(c2ccccc2Cl)C(C)(O)CC1(C)C` (centres undefined): 47.6 µg/mL (≈ 147 µM); `CN1CCC(N(CCc2ccccc2)C(=O)CCC(=O)O)CC1`: over 47.8 µg/mL; `CCOc1ccc(-c2n[nH]c(=S)o2)cc1`: over 33.3 µg/mL.
In the case of `COc1ccc(S(=O)(=O)N2CCc3ccccc3C2)cc1C(=O)O`, the kinetic solubility stood at 48.4 µg/mL (≈ 139 µM).
Next, `C(CNC1C2CC3CC(C2)CC1C3)CN1CCOCC1.Cl` (centres undefined): over 52.7 µg/mL; `c1ccc2sc(NC3=NCN(CC4CCCO4)CN3)nc2c1` (centres undefined): 42.1 µg/mL (≈ 133 µM); `CS(=O)(=O)c1ccc(C(=O)OCC(=O)Nc2cccnc2Cl)cc1[N+](=O)[O-]`: over 62.1 µg/mL.
`Cc1cccc(C)c1NC(=O)NC1CCc2ccccc21` (centres undefined) came in with a solubility (kinetic) of 1 µg/mL (≈ 3.57 µM).
The figure for `CC(=O)c1ccccc1NC(=O)COC(=O)CCC1CCCC1` is 7.7 µg/mL (≈ 24.3 µM).
For `CN1C(=O)/C(=C2\SC(=S)N(CCCCCC(=O)O)C2=O)c2ccccc21`, the kinetic solubility was found to be 6 µg/mL (≈ 15.4 µM).
Next, `CCOc1ccc(NC(=O)NCc2cccn2C)cc1`: 9.2 µg/mL (≈ 33.7 µM).
With `CCOC(=O)C1(Cc2ccccc2C)CCCN(C(=O)COC)C1` (centres undefined), the solubility (kinetic) was determined as 35.6 µg/mL (≈ 107 µM).
The figure for `O=Cc1c(SCCO)nc2ccccn2c1=O` is 17.6 µg/mL (≈ 70.3 µM); for `Cc1ccc(S(=O)(=O)NC(=O)Nc2cc(C)no2)cc1` it is over 44.3 µg/mL; for `CCN1CCN(S(=O)(=O)c2ccc(OC)cc2)CC1` it is 36.8 µg/mL (≈ 129 µM).
Next, `COc1ccc(C)cc1Nc1ccc(C(=O)O)cc1[N+](=O)[O-]`: 44.3 µg/mL (≈ 147 µM); `CCn1c(SCC(=O)NC2CCCC2)nnc1-c1cccnc1`: over 49.7 µg/mL; `N#C/C(=C(/O)CO/N=C/c1ccccc1Cl)c1nc2ccccc2[nH]1`: under 0.2 µg/mL.
Next, `CNC(=O)c1ccccc1NC(=O)C1CC(=O)N(C(C)C)C1` (centres undefined): 44.7 µg/mL (≈ 147 µM).
Compound `COc1cc(/C=C/C(=O)OCC(=O)NC(C)c2ccccc2)cc(OC)c1OC` (centres undefined) displayed a solubility (kinetic) of 54.9 µg/mL (≈ 137 µM).
In the case of `O=[N+]([O-])c1cccc(NC(=S)N2CCc3ccccc32)c1`, the solubility (kinetic) was determined as 7.6 µg/mL (≈ 25.4 µM).
The figure for `Cc1ccc(CNC(=O)CN2CCN(c3ccc(F)cc3)CC2)cc1` is over 51.2 µg/mL; for `O=C(O)/C=C/C(=O)Nc1nc(-c2ccc3ccccc3c2)cs1` it is over 48.7 µg/mL.
Next, `Cc1ccc(N2CC(C)Cn3c2nc2c3c(=O)[nH]c(=O)n2C)cc1` (centres undefined): 8.8 µg/mL (≈ 27 µM).
`COc1ccc(C2NC(=O)c3ccccc3N2)cc1` (centres undefined) gave a kinetic solubility of 33.2 µg/mL (≈ 131 µM). Compared with the last compound, the solubility kinetic is about 3.8-fold higher.
In turn, `O=C(CCN1CCN(CCO)CC1)Nc1cccc(Br)c1` yielded a kinetic solubility of over 53.4 µg/mL.
Next, `Cc1ccc2c(c1)N(CC(=O)N1CCCCC1C)C(=O)CO2` (centres undefined): over 45.4 µg/mL; `O=[N+]([O-])c1ccc(N2CCN(c3ccccn3)CC2)c(Cl)c1`: 0.8 µg/mL (≈ 2.51 µM).
Next, `COc1ccc(/C=C/C(=O)OCC(=O)NC2CC2)c(OC)c1`: over 45.8 µg/mL; `O=C(NCc1ccco1)/C(=C/c1ccco1)NC(=O)c1ccccc1`: 41.5 µg/mL (≈ 123 µM).
Next, `Cn1ccsc1=NC(=O)c1ccc(S(=O)(=O)C(F)F)cc1`: 2.5 µg/mL (≈ 7.52 µM); `COc1cccc(C(=O)OCCNC(=O)c2cccnc2)c1.Cl`: 43.3 µg/mL; `COc1ccc(NC(=O)CN2C(=O)CSC2=O)cc1`: over 42 µg/mL.
`Cc1ccccc1C(=O)NC(=S)NC1CC1` yielded a solubility (kinetic) of 16.3 µg/mL (≈ 69.6 µM).
Next, `CCOC(=O)c1cc(C)[nH]c1C`: 24.7 µg/mL (≈ 148 µM); `COc1ccc(-c2nc(-c3ccncc3)no2)cc1`: 1.1 µg/mL (≈ 4.34 µM); `O=C(CN1C(=O)S/C(=C\c2ccc(C(=O)O)cc2)C1=O)Nc1ccccc1`: 32.2 µg/mL (≈ 84.2 µM).
Next, `O=c1[nH]c(O)c(C=Nc2ccccc2Oc2ccccc2)c(=O)[nH]1`: 0.8 µg/mL (≈ 2.47 µM); `Cn1c(-c2cccs2)nc2ccccc21`: 30.4 µg/mL (≈ 142 µM); `COc1cc(C2C(C#N)=C(N)Oc3cc(C)oc(=O)c32)cc(OC)c1OC` (centres undefined): over 55.6 µg/mL.
Compound `CC1CN(CC(=O)NCc2ccccc2)CC(C)O1` (centres undefined) had a kinetic solubility of 36.1 µg/mL (≈ 138 µM).
Next, `COC(=O)c1cc(C(C)=O)c(C)[nH]c1=O`: over 31.4 µg/mL; `Cn1c(C(=O)N2CCN(c3ccc(F)cc3)CC2)cc2ccccc21`: 2.8 µg/mL (≈ 8.3 µM); `FCCCOc1ccc(CN2CCN(c3ccccc3F)CC2)cc1`: 19.5 µg/mL (≈ 56.3 µM).
The figure for `Cc1ccc(CNC(=O)c2ccc(Cl)c(S(N)(=O)=O)c2)n1C` is 41.5 µg/mL (≈ 121 µM); for `CC1CCCN(CC(O)COCc2ccc3c(c2)OCO3)C1.Cl` (centres undefined) it is 39 µg/mL; for `CC(C)CC1NC(=O)N(CC(=O)N(C)C2CCCCC2)C1=O` (centres undefined) it is over 46.4 µg/mL.
Next, `Cc1cc(C(=O)Nc2ccc(F)cc2F)on1`: over 35.7 µg/mL.
For the compound `Brc1ccc(CNCC2CCCO2)cc1` (centres undefined), the kinetic solubility was found to be 33.9 µg/mL (≈ 125 µM).
Next, `O=C(Nc1ccccc1C(=O)NCCCN1CCOCC1)c1ccc(F)cc1F`: 59.6 µg/mL (≈ 148 µM); `CCc1ccc(OCC2NCCc3cc(OC)c(OC)cc32)cc1` (centres undefined): over 49.1 µg/mL; `N#C/C(=C\c1ccc(O)c(Br)c1)C(=O)N1CCCCC1`: over 50.3 µg/mL.
`Cn1cccc1C(=O)OCC(=O)NCCc1ccc(S(N)(=O)=O)cc1` displayed a kinetic solubility of over 54.8 µg/mL.

For orientation: kinetic solubility means solubility judged after dilution from a stock solution rather than from solid.
